Source: article PMC2642990, “The Glycogen-Binding Domain on the AMPK β Subunit Allows the Kinase to Act as a Glycogen Sensor” (Cell Metabolism, 2009)

How the values were obtained:
[1] = target: bacterially expressed rat β1 GBD; design: method as in Koay et al. (2007); conditions: NMR method; ref Koay et al. (2007); read-out: KD for binding to rat β1 GBD; cited from earlier work
[2] = tested on: rat β1 GBD; conditions: cited from earlier work; for concentration that displaces the β1 GBD from glycogen: ref Polekhina et al. (2005)
[3] = target: T1, recombinant α1β1γ1 complex with β1 GBD mutations (W100G/W133A and others) (Rattus norvegicus, UniProt P80386, W100G/W133A); assay: recombinant AMPK with GBD point mutations in β1, assayed in immunoprecipitates; type: biochemical; conditions: 2 mM; Figure 4B
T1 construct: we made mutations in full-length β1 coexpressed with α1 and γ1 in CCL13 cells; made in house; host or cells: human CCL13 cells, co-transfected; isolated by anti-myc immunoprecipitation
Excerpt: To test whether mutations that interfered with the binding of glycogen to the GBD also affected inhibition of AMPK by glycogen, we made mutations in full-length β1 coexpressed with α1 and γ1 in CCL13 cells, isolated the complex by immunoprecipitation via the myc tag on α1, and assayed the kinase activity in the presence and absence of glycogen. The activities were adjusted to correct for slight variation in recovery of the α1 subunit assessed by blotting (inset in Figure 3A). […] Because all of these assays were conducted in resuspended immunoprecipitates, the degree of inhibition of the wild-type was < 50%, as discussed in the previous section. […]
Figure 3 Effect of β Subunit Mutations on Inhibition of Recombinant AMPK Complexes by Glycogen (A) Myc-α1, γ1, and β1 with the wild-type sequence or the indicated mutations were expressed in CCL13 cells, immunoprecipitated, and assayed ± bovine liver glycogen (200 mM glucose equivalents); results are mean ± SEM (n = 3). […] (C) Myc-α1, γ1, and β1 with the wild-type sequence or with W100G/W133A mutations were expressed in CCL13 cells, immunoprecipitated using anti-myc (left) or anti-FLAG (right) antibodies, and analyzed by western blotting using anti-myc antibodies (top panels) or a mixture of anti-β1 and -γ1 antibodies (bottom panels). […]

[4] = target: T2, GBD (Rattus norvegicus, UniProt P80386); assay: binding of linear oligosaccharides to the GBD (data not shown)
T2 construct: The rat β1 GBD (residues 70-172 was cloned into pGEX6P2, expressed in Escherichia coli (BL21)); GST (N); made in house; host or cells: E. coli BL21 (inferred)
T2 sequence (P80386 70-172): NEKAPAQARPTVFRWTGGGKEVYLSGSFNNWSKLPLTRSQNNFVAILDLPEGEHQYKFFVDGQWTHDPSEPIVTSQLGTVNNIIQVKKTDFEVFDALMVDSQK

[5] = target: native rat liver AMPK (Rattus norvegicus, UniProt P80386); assay: AMPK kinase assay (SAMS peptide), native rat liver AMPK in solution; type: biochemical; conditions: up to 100 mM
Method: We next tested the effect of glycogen on the activity of the native AMPK complex purified from rat liver ([Hawley et al., 1996]). […] The bovine liver glycogen inhibited AMPK completely with an IC50 (concentration causing half-maximal inhibition) of 30 ± 9 mM glucose equivalents (Figure 2A).
(§1) Figure 2 Allosteric Inhibition of AMPK by Different Glycogen Preparations (A) Concentration dependence of inhibition of native rat liver AMPK by preparations of bovine and rat liver glycogen; glycogen concentrations expressed as glucose produced after total hydrolysis. Data were fitted to an IC50 equation (see Supplemental Experimental Procedures), and curves were generated using the estimated best-fit parameters. (B) Concentration dependence of inhibition of native rat liver AMPK by bovine liver glycogen in the presence and absence of 200 μM AMP; curves were generated as in (A). (C) Inhibition by bovine liver glycogen of recombinant AMPK complex (myc-α1:β1:γ1) containing full-length (1–270) or truncated β1 subunit lacking the GBD (172–270). Complexes were expressed in CCL13 cells and purified by immunoprecipitation prior to assay with or without glycogen (200 mM glucose equivalents). Data are means ± SEM (n = 3). ^∗Activity different from control without glycogen by t test (p < 0.05). (D) Inhibition by bovine liver glycogen (200 mM glucose equivalents) of purified, native rat liver AMPK (a mixture of α1β1γ1 and α2β1γ1 complexes) that had been recovered by immunoprecipitation (IP) using anti-α1, anti-α2, or a mixture of anti-α1/-α2 antibodies or assayed in solution without immunoprecipitation. Results are expressed as percentages of the activity in controls without glycogen, and data are mean ± SEM (n = 3). (E) Absorption spectra of bovine and rat liver glycogen preparations in complex with iodine. […]
Purification of Native Rat Liver, AMPK, Recombinant AMPK, and AMPK Assays AMPK was purified from rat liver as far as the gel filtration step (Hawley et al., 1996). The kinase was assayed using the SAMS peptide (Davies et al., 1989). IC50 values for inhibition were estimated by fitting data using GraphPad Prism to the equation: Activity = Residual + Maximum - (Maximum × [Inhibitor]/(IC50+[Inhibitor])) where Residual is the activity in the presence of maximal inhibition, Maximum is the maximal inhibition and [inhibitor] is the concentration of the inhibitory molecule. For recombinant AMPK, constructs encoding myc-tagged α1, β1 and γ1 subunits of AMPK were co-transfected into CCL13 cells using modifications of previous methods (Woods et al., 1996). DNA (10 µg) was dissolved in sterile water (450 µl) to which 50 μl of 2.5 M CaCl2 was added, and the solution vortexed for 1 min. […]

[6] = target: T3, recombinant AMPK complex (myc-α1:β1:γ1) (Rattus norvegicus, UniProt P80386); assay: recombinant wild-type AMPK expressed in CCL13 cells, assayed in anti-myc immunoprecipitates; type: biochemical; conditions: 2 mM; Figure 6C
T3 construct: recombinant AMPK complex (myc-α1:β1:γ1) containing full-length (1–270) or truncated β1 subunit lacking the GBD (172–270); made in house; host or cells: human CCL13 cells, co-transfected; isolated by anti-myc immunoprecipitation
Excerpt: as §1, with “(D) Inhibition by bovine liver glycogen (200 mM glucose equivalents) of purified, native rat liver AMPK (a mixture of α1β1γ1 and α2β1γ1 complexes) that had been recovered by immunoprecipitation (IP) using anti-α1, anti-α2, or a mixture of anti-α1/-α2 antibodies or assayed in solution without immunoprecipitation.” left out, “3).” for “3). (E) Absorption spectra of bovine and rat liver glycogen preparations in complex with iodine.”

native rat liver AMPK, sequence (P80386 2-270): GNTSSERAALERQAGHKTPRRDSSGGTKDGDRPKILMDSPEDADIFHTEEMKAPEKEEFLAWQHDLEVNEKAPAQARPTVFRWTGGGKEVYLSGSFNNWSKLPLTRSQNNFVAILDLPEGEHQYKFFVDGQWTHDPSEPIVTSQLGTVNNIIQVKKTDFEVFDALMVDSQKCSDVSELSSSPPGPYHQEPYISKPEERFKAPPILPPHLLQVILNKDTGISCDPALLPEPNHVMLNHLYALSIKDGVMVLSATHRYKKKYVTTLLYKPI
native rat liver AMPK, sequence (P54645 whole entry partner): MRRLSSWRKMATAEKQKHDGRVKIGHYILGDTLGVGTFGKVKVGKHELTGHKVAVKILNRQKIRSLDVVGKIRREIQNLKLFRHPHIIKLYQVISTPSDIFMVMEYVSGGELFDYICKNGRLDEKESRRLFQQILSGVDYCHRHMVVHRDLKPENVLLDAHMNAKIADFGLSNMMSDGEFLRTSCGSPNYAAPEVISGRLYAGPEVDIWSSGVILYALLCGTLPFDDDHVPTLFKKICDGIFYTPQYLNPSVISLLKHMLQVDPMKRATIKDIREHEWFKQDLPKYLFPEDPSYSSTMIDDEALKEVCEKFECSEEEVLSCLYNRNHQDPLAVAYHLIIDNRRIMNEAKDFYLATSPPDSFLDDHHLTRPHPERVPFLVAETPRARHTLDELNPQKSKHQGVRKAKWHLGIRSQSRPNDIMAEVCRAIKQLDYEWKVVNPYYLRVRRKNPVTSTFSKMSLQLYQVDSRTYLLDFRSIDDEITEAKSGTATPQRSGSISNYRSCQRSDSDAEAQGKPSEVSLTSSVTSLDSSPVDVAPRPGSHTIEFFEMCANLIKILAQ
native rat liver AMPK, sequence (Q09137 whole entry partner): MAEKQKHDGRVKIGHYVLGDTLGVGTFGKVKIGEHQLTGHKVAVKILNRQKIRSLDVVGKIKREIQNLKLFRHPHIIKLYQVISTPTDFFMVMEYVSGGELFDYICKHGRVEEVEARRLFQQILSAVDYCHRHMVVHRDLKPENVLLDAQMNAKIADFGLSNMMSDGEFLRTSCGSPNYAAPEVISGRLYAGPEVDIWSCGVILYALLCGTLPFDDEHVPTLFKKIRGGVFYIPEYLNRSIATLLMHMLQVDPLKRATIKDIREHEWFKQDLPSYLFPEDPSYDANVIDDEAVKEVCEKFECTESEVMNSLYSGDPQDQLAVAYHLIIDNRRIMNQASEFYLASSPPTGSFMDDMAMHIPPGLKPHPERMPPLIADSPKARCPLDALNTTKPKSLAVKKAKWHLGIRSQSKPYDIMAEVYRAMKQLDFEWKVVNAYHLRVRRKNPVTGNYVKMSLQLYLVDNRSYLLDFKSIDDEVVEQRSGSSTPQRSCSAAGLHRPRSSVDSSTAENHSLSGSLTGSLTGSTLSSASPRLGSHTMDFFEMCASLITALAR
native rat liver AMPK, sequence (P80385 whole entry partner): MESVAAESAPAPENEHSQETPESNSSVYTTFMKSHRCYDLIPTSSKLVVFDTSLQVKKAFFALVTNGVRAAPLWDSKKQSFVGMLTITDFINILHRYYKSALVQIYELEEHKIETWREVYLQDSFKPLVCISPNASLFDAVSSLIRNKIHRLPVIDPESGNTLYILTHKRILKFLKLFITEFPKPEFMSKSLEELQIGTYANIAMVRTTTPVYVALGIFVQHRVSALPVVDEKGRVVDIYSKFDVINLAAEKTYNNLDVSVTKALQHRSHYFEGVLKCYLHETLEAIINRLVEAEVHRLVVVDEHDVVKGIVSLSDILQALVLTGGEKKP
T3 sequence (P80386 whole entry, the tested form may be a part): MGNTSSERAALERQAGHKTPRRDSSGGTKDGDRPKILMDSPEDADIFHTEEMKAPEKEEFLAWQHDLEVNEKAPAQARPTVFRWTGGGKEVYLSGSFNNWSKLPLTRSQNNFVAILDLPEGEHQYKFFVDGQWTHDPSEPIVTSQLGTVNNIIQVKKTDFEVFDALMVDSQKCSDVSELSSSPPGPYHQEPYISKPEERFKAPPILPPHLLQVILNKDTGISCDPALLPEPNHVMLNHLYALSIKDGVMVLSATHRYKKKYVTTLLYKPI
T3 sequence (P54645 13-559 partner limits assumed): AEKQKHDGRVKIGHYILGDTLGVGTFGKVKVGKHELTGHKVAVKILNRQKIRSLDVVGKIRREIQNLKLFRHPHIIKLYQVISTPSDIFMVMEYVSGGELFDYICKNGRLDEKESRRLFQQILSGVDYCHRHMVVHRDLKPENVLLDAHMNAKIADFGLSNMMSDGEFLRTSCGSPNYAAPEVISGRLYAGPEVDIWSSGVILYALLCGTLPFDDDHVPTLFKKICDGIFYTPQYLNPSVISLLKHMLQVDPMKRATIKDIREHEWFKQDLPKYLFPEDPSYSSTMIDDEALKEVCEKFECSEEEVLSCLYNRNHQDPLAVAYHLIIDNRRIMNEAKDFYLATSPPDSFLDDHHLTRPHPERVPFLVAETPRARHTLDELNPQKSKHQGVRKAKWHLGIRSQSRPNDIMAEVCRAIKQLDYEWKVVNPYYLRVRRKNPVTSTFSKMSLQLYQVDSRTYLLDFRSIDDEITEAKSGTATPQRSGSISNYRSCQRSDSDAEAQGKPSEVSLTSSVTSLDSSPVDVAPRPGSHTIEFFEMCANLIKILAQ
T3 sequence (P80385 whole entry partner, the tested form may be a part): as the sequence (P80385 whole entry partner) above
T1 sequence (P80386 2-270 W100G/W133A): as the sequence (P80386 2-270) above, with W99G, W132A counted along it
T1 sequence (P54645 whole entry partner): as the sequence (P54645 whole entry partner) above
T1 sequence (P80385 whole entry partner): as the sequence (P80385 whole entry partner) above

Compound | inhibition of W100G/W133A mutant [3] | binding to the GBD [4] | inhibition at concentrations up to 100 mM [5] | inhibition of wild-type recombinant α1β1γ1 [6] | Kd [1] [µM] | competition with glycogen for binding to the GBD ([2]; ref Polekhina et al. (2003, 2005)) | concentration that displaces the β1 GBD from glycogen [2]
OC[C@H]1O[C@@H]2O[C@H]3[C@H](O)[C@@H](O)[C@@H](O[C@H]4[C@H](O)[C@@H](O)[C@@H](O[C@H]5[C@H](O)[C@@H](O)[C@@H](O[C@H]6[C@H](O)[C@@H](O)[C@@H](O[C@H]7[C@H](O)[C@@H](O)[C@@H](O[C@H]8[C@H](O)[C@@H](O)[C@@H](O[C@H]1[C@H](O)[C@H]2O)O[C@@H]8CO)O[C@@H]7CO)O[C@@H]6CO)O[C@@H]5CO)O[C@@H]4CO)O[C@@H]3CO [β-cyclodextrin] | abolished |  |  |  | 300 | can compete | 
maltoheptaose |  | could bind | almost no inhibition |  | 400 |  | greater than 1 mM
OC[C@H]1O[C@H](O[C@H]2[C@H](O)[C@@H](O)C(O)O[C@@H]2CO)[C@H](O)[C@@H](O)[C@@H]1O (mixture of isomers) [maltose] |  |  | did not cause any inhibition |  |  |  | 

More lines, main results first:

inhibition of W100G/W133A mutant [3] | binding to the GBD [4] | inhibition at concentrations up to 100 mM [5] | inhibition of wild-type recombinant α1β1γ1 [6] | Compound | Kd [1] [µM] | competition with glycogen for binding to the GBD ([2]; ref Polekhina et al. (2003, 2005)) | concentration that displaces the β1 GBD from glycogen [2]
 | could bind | almost no inhibition |  | maltohexaose | 700 |  | greater than 1 mM
 |  |  | not significant | CO[C@H]1O[C@H](CO)[C@@H](O[C@H]2O[C@H](CO)[C@@H](O)[C@H](O)[C@H]2O)[C@H](O)[C@H]1O [Oligosaccharide 8, methyl α-maltoside] |  |  | 
